Data as given in patent US20150157575A1, “Pharmaceutical Formulations Comprising Vilazodone” (Forest Laboratories Holdings Ltd., priority 2013, published 2015).

Assay: clinical
Design: species or system human
Details: both sexes, human, in vivo, Mean trough plasma concentration
Experimental: An open-label, multiple-dose, single-sequence study to evaluate the effect of steady-state carbamazepine XR, 400 mg once daily, a CYP3A4 substrate and inducer, on the pharmacokinetics of steady-state vilazodone 40 mg tablets once daily, with hardness of more than 10 kp and less than 14 kp, preferably about 12 kp as shown in Table 3 (No Tablet Breakage). Vilazodone was co-administered with carbamazepine XR (extended release formulation). Carbamazepine is an antiepileptic drug approved for the treatment of psychomotor and grand mal seizures is metabolized by CYP3A4, and is a CYP3A4 inducer.
All subjects were healthy, nonsmoking male or female volunteers who were 18-45 (Study 2) years of age. Inclusion and exclusion criteria were typical of the criteria used in pharmacokinetic studies in healthy volunteers as known in the art. Inclusion criteria used included agreement to use an effective measure of contraception, body mass index (BMI)>18 and ≦30 kg/m^2 (BMI=18 allowed), normal or clinically non-significant results on physical examination, medical history, serum chemistry, hematology, and urinalysis; negative hepatitis B antigen and C antibody tests, and negative HIV test at screening. Exclusion criteria included clinically significant electrocardiogram results or QT prolongation, clinically significant disease state, history of alcohol abuse, ingestion of food, drink, or drug that may interfere with CYP enzyme activity (e.g., cruciferous vegetables, caffeine, alcohol), known sensitivity to study drug or other drugs from the same class, and use of prohibited concomitant prescription or over-the counter medications.
All volunteers received 4 treatments (A, B, C, and D) in the same, fixed sequence: Treatment A consisted of vilazodone alone on Days 1-9 and was followed by a 14-day washout, Treatment B was carbamazepine XR alone for 19 days (Days 24-42), Treatment C was vilazodone plus carbamazepine XR for 9 days (Days 43-51), and Treatment D was carbamazepine alone for 3 days (Days 52-54). Once-daily doses of study drug were administered in the morning after breakfast; twice-daily doses were administered in the morning after breakfast and 12 hours later in the evening after dinner Study drug was administered within 30 minutes after the end of the corresponding meal.
Blood samples to determine plasma concentrations of vilazodone, M17 (the metabolite of vilazodone), carbamazepine, and carbamazepine-10,11-epoxide (one of the pharmacologically active metabolites of carbamazepine) were collected into tubes pretreated with K2EDTA. For vilazodone and M17 analyses, blood samples (approximately 6 mL) were collected at pre-dose on Days 1, 7, 8, 49, and 50. […] For the analyses of carbamazepine and carbamazepine-10,11-epoxide, blood samples were collected at pre-dose on Days 24, 40, 41, 49 and 50.
Blood samples were centrifuged at no less than 2500 g for 10 minutes at 4° C. within 30 minutes of the sample draw. Plasma was harvested and transferred to polypropylene tubes and flash frozen in a dry ice bath with isopropyl alcohol or methanol. Samples for vilazodone analyses were stored at approximately −70° C. and analyzed. Samples for carbamazepine analyses were stored at −20° C. and analyzed.
Plasma samples were analyzed for vilazodone, M17, carbamazepine and/or carbamazepine-10,11-epoxide concentrations using liquid chromatography coupled with tandem mass spectrometry (LC/MS/MS). For vilazodone and M17, analytes of interest were detected by electrospray ionization mass spectrometry in the negative ion multiple reaction monitoring mode. The assay was linear in the concentration range of 0.5 to 250 ng/mL for vilazodone and 0.25 to 125 ng/mL for M17.
Based on 50 ìL of human plasma with K2EDTA as the anticoagulant, the lower limit of quantification (LLOQ) was 0.5 ng/mL for vilazodone and 0.25 ng/mL for M17. […]

Cl.N#Cc1ccc2[nH]cc(CCCCN3CCN(c4ccc5oc(C(N)=O)cc5c4)CC3)c2c1 [Vilazodone, 1-[4-(5-cyanoindol-3-yl)butyl]-4-(2-carbamoyl-benzofuran-5-yl)-piperazine hydrochloride]
concentration at 7 day: 36 ng/mL
concentration at 8 day: 45.1 ng/mL
concentration at 9 day: 45.3 ng/mL
